Source: patent US7311743B2, “Biofiltration apparatus and method for reducing methyl bromide concentration in a volume of gas” (Energy Resource Institute, Inc., priority 2004, dated 2007)

How the values were obtained:
[1] = Air/organic phase partition coefficient of methyl bromide; format: physicochemical; settings: gas over liquid concentration
Description: If necessary, the air/organic phase partition coefficients of methyl bromide in these and other potential organic liquids may be determined by adding a known amount of an organic liquid and methyl bromide to a 250 mL flask with TEFLON-lined silicon septa. A gas headspace may be analyzed for methyl bromide by gas chromatography, and the partition of methyl bromide may be calculated. In certain embodiments, corn oil may be preferred since the air/corn oil partition coefficient for methyl bromide is 0.02, i.e., about ten times lower than with water. Based on calculations, a Henry coefficient of 0.005 may be ideal for load dampening. The organic phase should meet various requirements, such as a low vapor pressure, low toxicity, non-miscibility with water, and being non-biodegradable. Additional examples of liquids may include di-n-octylphtalate, di-n-nonylphtalate, polydimethylsiloxane, and silicone oil. Methyl bromide concentrations in the inlet and outlet air may be determined (continuously or semi-continuously) with a photoionization detector (PID) analyzer, for example. […] Potential carry over of aerosol to the outlet stream may be determined to evaluate whether a demister might be beneficial. For either the GAC or liquid absorption system, the results may be analyzed with mathematical model (see FIG. 19).

[2] = tested on: methyl bromide-degrading bacteria; test: Methyl bromide removal in the biotrickling filter
From the text: A biotrickling filter was constructed as schematically represented in FIG. 2. The apparatus included three packed bed sections filled with lava rock, perlite or polyurethane as packing materials. Other equipment included an air supply, a methyl bromide supply, recycle liquid circulation, a nutrient supply (as a complete mineral medium), and a pH control by automatic addition of NaOH. The biotrickling filter was usually operated at standard conditions as specified in Table 1.
Cultures of methyl bromide-degrading bacteria were obtained by inoculating or exposing the substrate component of the apparatus with a variety of natural sources or materials, such as soil and sediment. A continuous supply of a low concentration (about 0 to about 10 g/m^3) of methyl bromide was supplied to the apparatus. The first signs of methyl bromide removal were observed after about 6-12 days of operation of the apparatus. The methyl bromide elimination capacity seemed to reach a maximum value after about 35-40 days of operation. During operation, the pH in the recycle liquid declined, small amounts of bromide were produced in the recycle liquid, and the CO2 concentration in the outlet air increased.
The fate of methyl bromide in the biotrickling filter was determined by comparing the rate of methyl bromide removal with the rates of CO2 production, bromide ion production and NaOH consumption as expected from the biodegradation reaction stoichiometry. Biodegradation of methyl bromide and pH control occur according to the following reactions 2CH3Br+3O2→2HBr+2 CO2+2H2O Equation 3 HBr+NaOH→NaBr+H2O Equation 4
The effect of the liquid recycle or trickling rate was examined at the lower and higher end of the range of recycle rates commonly employed in biotrickling filters. Methyl bromide removal was the same at a trickling rates of 2.55 and 22.2 L/h, corresponding to superficial liquid velocities of 2.0 and 17.7 m/h, respectively (Table 2).
The maximum elimination capacity of methyl bromide in the biotrickling filter was determined by stepwise increasing the methyl bromide concentration. Depending on the inlet concentration, the following phases can be distinguished: […]

SMILES | Air/corn oil partition coefficient [1] | Removal efficiency ([2]; gas flow cocurrent, EBRT = 94 s, inlet 3.042 g/m^3) | Removal efficiency ([2]; gas flow countercurrent (standard operation), EBRT = 94 s, inlet 3.713 g/m^3) | Concentration at which a reduction of the elimination capacity (toxic effect on microorganisms) was observed ([2]; inlet air concentration (3300 ppm)) | Removal efficiency ([2]; low inlet concentrations increasing up to 3 g/m^3) | Removal efficiency ([2]; superficial liquid velocity 2.0 m/h (standard operation), EBRT = 94 s, inlet 2.927 g/m^3) | Removal efficiency ([2]; superficial liquid velocity 17.7 m/h, EBRT = 94 s, inlet 2.927 g/m^3) | NaBr concentration in the recycle liquid at which inhibition of methyl bromide removal was observed ([2]; recycle liquid (48 g/L))
CBr [Methyl bromide] | 0.02 | 63% | 70% | greater than 13 g/m^3 | greater than 96% | 89% | 91% | –
[Br-].[Na+] [NaBr, sodium bromide] | – | – | – | – | – | – | – | ≥ 0.47 M
